Data published in publication PMC6402191 (Clinical and Translational Science, 2017).
Several values for one entry are separate records, joined by “and”; a condition that tells them apart may be missing. Equal values may be shown once. Entries after “also recorded” stand apart in the source; their conditions may differ.

Tests used:
OAT3 = target: T1, OAT3 (Homo sapiens, UniProt Q8TCC7); experiment: Uptake of baricitinib into OAT3-transfected HEK-PEAK cells; assay type: in vitro ADME
T1 sequence (Q8TCC7 1-542): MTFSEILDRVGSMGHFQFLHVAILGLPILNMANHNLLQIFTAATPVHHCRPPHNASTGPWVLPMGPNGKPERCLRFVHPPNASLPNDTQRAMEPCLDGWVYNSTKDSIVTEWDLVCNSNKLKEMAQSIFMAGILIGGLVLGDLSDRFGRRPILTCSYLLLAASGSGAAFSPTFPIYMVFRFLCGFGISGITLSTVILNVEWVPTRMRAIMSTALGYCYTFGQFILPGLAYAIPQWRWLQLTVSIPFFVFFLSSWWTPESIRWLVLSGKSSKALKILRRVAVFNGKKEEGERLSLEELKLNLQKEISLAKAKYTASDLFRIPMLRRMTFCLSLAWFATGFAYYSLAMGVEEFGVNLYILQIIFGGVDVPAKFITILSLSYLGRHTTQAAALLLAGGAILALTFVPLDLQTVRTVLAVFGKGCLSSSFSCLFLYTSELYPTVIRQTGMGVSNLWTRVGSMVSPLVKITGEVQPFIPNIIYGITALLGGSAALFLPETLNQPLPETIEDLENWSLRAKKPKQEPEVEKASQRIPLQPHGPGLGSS

OCT2 = target: T2, OCT2 (Homo sapiens, UniProt O15244); experiment: Baricitinib substrate study in OCT2-transfected HEK-PEAK cells; assay type: in vitro ADME
T2 sequence (O15244 1-555): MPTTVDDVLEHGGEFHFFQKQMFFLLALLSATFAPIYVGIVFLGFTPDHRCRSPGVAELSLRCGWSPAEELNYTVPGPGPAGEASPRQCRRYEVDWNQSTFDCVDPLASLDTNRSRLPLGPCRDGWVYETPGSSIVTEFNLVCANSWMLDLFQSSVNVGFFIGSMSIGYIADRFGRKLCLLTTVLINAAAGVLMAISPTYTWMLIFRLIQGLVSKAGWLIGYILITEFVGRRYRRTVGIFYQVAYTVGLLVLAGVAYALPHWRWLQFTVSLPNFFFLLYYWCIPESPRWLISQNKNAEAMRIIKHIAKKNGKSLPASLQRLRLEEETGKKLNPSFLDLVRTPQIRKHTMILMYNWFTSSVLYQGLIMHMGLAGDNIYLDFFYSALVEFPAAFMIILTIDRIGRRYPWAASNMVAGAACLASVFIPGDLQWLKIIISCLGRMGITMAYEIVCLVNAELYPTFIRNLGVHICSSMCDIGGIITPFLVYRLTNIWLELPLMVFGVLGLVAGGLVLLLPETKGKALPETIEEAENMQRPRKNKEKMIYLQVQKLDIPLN

[1] = Clinical baricitinib-probenecid DDI study in healthy subjects; assay type: in vivo, human
MATE1 = target: T3, MATE1 (Homo sapiens, UniProt Q96FL8); experiment: Baricitinib substrate study in MATE1-transfected HEK cells; assay type: in vitro ADME
T3 sequence (Q96FL8 1-570): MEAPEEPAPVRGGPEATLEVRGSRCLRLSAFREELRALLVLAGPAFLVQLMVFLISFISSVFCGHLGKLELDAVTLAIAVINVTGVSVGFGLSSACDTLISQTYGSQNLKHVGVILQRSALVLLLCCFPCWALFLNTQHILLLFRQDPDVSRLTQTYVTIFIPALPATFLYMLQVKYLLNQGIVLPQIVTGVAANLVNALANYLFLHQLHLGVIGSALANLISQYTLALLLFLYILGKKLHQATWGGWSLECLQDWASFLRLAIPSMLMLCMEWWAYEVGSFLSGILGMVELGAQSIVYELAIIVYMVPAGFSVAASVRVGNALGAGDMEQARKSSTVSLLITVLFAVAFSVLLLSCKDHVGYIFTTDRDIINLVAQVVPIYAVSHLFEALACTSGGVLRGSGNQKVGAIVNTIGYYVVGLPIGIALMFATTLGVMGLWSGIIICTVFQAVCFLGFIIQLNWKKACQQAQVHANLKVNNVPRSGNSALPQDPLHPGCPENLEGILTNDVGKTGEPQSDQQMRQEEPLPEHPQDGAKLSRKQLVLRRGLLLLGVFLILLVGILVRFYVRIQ

OAT1 = target: T4, OAT1 (Homo sapiens, UniProt Q4U2R8); experiment: Baricitinib substrate study in OAT1-transfected HEK-PEAK cells; assay type: in vitro ADME
T4 sequence (Q4U2R8 1-563): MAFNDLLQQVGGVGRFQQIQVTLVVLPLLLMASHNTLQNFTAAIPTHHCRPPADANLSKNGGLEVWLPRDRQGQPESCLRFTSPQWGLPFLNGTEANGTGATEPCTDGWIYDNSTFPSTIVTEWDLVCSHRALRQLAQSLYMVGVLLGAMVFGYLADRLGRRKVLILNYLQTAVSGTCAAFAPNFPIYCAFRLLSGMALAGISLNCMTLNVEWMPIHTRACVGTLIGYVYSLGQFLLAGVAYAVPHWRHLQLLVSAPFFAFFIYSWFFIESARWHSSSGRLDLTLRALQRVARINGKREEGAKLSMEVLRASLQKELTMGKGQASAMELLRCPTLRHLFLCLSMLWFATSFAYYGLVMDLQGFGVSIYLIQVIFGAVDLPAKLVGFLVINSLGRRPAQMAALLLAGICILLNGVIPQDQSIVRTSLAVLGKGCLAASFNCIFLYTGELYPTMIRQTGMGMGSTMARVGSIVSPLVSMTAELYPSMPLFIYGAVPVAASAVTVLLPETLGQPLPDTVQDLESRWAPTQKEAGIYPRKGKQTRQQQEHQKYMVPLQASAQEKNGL

[2] = Human mass balance study of baricitinib; assay type: in vivo
[3] = observed, listed as baricitinib

OAT3 substrate (OAT3): substrate of OAT3
Uptake into OAT3-transfected cells relative to control cells (OAT3; 1-min incubation): approximately double
OAT3 Vmax (OAT3; PBPK input): 70.76 pmol/min/10^6 cells
OAT3 Vmax (OAT3; average of two experiments): 176.9 pmol/min/mg protein
OCT2 substrate (OCT2): not a substrate
CL/F, geometric mean (CV) ([1]; 4 mg baricitinib + probenecid): 8.33 (14) L/h
CL/F, geometric mean (CV) ([1]; 4 mg baricitinib only): 16.9 (22) L/h
increase of half-life in the presence of probenecid ([1]; human, in vivo): 63%
AUC ([1]; human, plasma, oral, 4 mg): 236 ng·h/mL
Cmax ([1]; human, plasma, oral, 4 mg): 36.2 ng/mL
Tmax ([1]; human, plasma, oral, 4 mg): 1 h
half-life ([1]; human, plasma, oral, 4 mg): 7.28 h
CL renal ([1]; human, urine and plasma, oral, 4 mg): 183 mL/min
AUC(0‐∞) ratio of geometric LS means, baricitinib + probenecid : baricitinib only (90% CI) ([1]; observed): 2.03 (1.91, 2.16) and 2.03(1.91‐2.16)
CLr ratio of geometric LS means, baricitinib + probenecid : baricitinib only (90% CI) ([1]; observed): 0.313 (0.289, 0.339)
Cmax ratio of geometric LS means, baricitinib + probenecid : baricitinib only (90% CI) ([1]; observed): 1.03 (0.940, 1.13)
AUC(0‐∞) ratio of geometric LS means, baricitinib + probenecid : baricitinib only (90% CI) [1, 3]: twofold; also recorded: doubled
Cmax ratio of geometric LS means, baricitinib + probenecid : baricitinib only (90% CI) [1, 3]: 1.03
MATE1 substrate (MATE1): not a substrate
OAT1 substrate (OAT1): not a substrate
Fa (fraction absorbed) ([2]; calculated from human mass balance study): 0.8
blood plasma ratio ([2]; human, blood and plasma, oral): 1.26
dose found as parent compound in feces ([2]; in vivo): 20 % of the dose
SMILES: CCS(=O)(=O)N1CC(CC#N)(n2cc(-c3ncnc4[nH]ccc34)cn2)C1 [Baricitinib]
OAT3 Vmax (individual experiments) (OAT3; each of two separate experiments): 164.3 ± 7.97 pmol/min/mg protein and 189.5 ± 27.10 pmol/min/mg protein
Ae(0‐48), arithmetic mean (SD) ([1]; 4 mg baricitinib + probenecid): 1.57 (0.191) mg
Ae(0‐48), arithmetic mean (SD) ([1]; 4 mg baricitinib only): 2.60 (0.399) mg
tolerability ([1]; healthy subjects, all drug-related treatment-emergent AEs mild): well tolerated
